Where no end group is shown, it is not given here.
What was measured:
[1] = system: Vibrio alginolyticus xv22; assay: Antibacterial screen at 200 μg/mL (cell density vs control); assay type: cell-based; settings: peptide 200 μg/mL, CAMHB, 5 × 10^5 CFU/mL, 37°C, 12 h, OD600; control (no AMP) = 1; three biological replicates
Method: (§1) Eight bacterial strains were utilized in the antibacterial experiment. S. aureus ATCC 12600, B. subtilis ATCC 23857, E. coli ATCC 11775, and A. baumannii ATCC 19606 were purchased from Shanghai Beinuo Biology. M. luteus ATCC 4698 and S. bongori ATCC43975 were purchased from Shanghai Beisi Biotechnology. V. owensii ems001 and V. alginolyticus xv22 from the intestines of diseased shrimps were isolated in our laboratory. All strains were cultured in the cation‐adjusted Mueller‐Hinton broth (CAMHB) at 37°C to the logarithmic growth phase (OD600 = 0.5). Then, bacteria were gradient‐diluted using fresh CAMHB to a bacterial density of 5 × 10^5 CFU/mL. Antibacterial experiments were performed in a 96‐well plate with 200 μg/mL final peptide concentration. Four experimental groups were set up, including a blank control (200 μL CAMHB), a negative control (180 μL CAMHB plus 20 μL peptide), a positive control (180 μL bacterial culture plus 20 μL ultrapure water), and an experimental group (180 μL bacterial culture plus 20 μL peptide). Three biological replicates were conducted for each group, and OD600 values were measured after incubation at 37°C for 12 h. Every observed value was removed from the blank control group value. The value of the experimental group was then subtracted from the value of the negative control group therefore eradicating the effect of the peptide on the OD measurement. Student's t‐test allowed the estimation of a notable variation between the experimental and positive groups using a p‐value of 0.05 as the limit. […] The MIC of a peptide against a bacterium was determined as the minimum peptide concentration at which there was no visible bacterial growth.

[2] = system: Acinetobacter baumannii ATCC 19606; assay: as above; assay type: cell-based; settings: peptide 200 μg/mL, CAMHB, 5 × 10^5 CFU/mL, 37°C, 12 h, OD600; control (no AMP) = 1; three biological replicates
Method: as §1

[3] = system: Micrococcus luteus ATCC 4698; assay: as above; assay type: cell-based; settings: peptide 200 μg/mL, CAMHB, 5 × 10^5 CFU/mL, 37°C, 12 h, OD600; control (no AMP) = 1; three biological replicates
Method: as §1

[4] = system: Bacillus subtilis ATCC 23857; assay: as above; assay type: cell-based; settings: peptide 200 μg/mL, CAMHB, 5 × 10^5 CFU/mL, 37°C, 12 h, OD600; control (no AMP) = 1; three biological replicates
Method: as §1

[5] = system: Escherichia coli ATCC 11775; assay: as above; assay type: cell-based; settings: peptide 200 μg/mL, CAMHB, 5 × 10^5 CFU/mL, 37°C, 12 h, OD600; control (no AMP) = 1; three biological replicates
Method: as §1

[6] = system: Salmonella bongori ATCC 43975; assay: as above; assay type: cell-based; settings: peptide 200 μg/mL, CAMHB, 5 × 10^5 CFU/mL, 37°C, 12 h, OD600; control (no AMP) = 1; three biological replicates
Method: as §1

[7] = system: Staphylococcus aureus ATCC 12600; assay: as above; assay type: cell-based; settings: peptide 200 μg/mL, CAMHB, 5 × 10^5 CFU/mL, 37°C, 12 h, OD600; control (no AMP) = 1; three biological replicates
Method: as §1

Vibrio owensii ems001 = assay: as above; assay type: cell-based; settings: peptide 200 μg/mL, CAMHB, 5 × 10^5 CFU/mL, 37°C, 12 h, OD600; control (no AMP) = 1; three biological replicates
Method: as §1

sheep red blood cells = settings: red cells of sheep, 1 h
Method: Freshly collected sheep blood was centrifuged at 3000 rpm for 10 min, and the supernatant was removed. The pellet was washed and resuspended with normal saline water to produce a 2% blood cell solution. Then, 400 μL of peptide solution was added to 100 μL of 2% blood cell solution to achieve final peptide concentrations of 8, 16, 32, 64, and 128 μg/mL. Normal saline water and Triton X‐100 normal saline solution (2%) were used as negative and positive controls, respectively. The samples were incubated in a water bath at 37°C for 1 h, followed by centrifugation at 3000 rpm for 10 min. Then, 200 μL of the supernatant was transferred to a 96‐well plate, and OD values were measured at a wavelength of 545 nm. The hemolysis rate of each sample was calculated using the following formula: Hemolysis ratio=OD545(experimental)−OD545(negative control)/OD545(positive control)−OD545(negative control)×100%.

| Sequence | cell density relative to control, V. alginolyticus xv22 [1] | cell density relative to control, A. baumannii ATCC 19606 [2] | cell density relative to control, M. luteus ATCC 4698 [3] | cell density relative to control, B. subtilis ATCC 23857 [4] | cell density relative to control, E. coli ATCC 11775 [5] | cell density relative to control, S. bongori ATCC 43975 [6] | cell density relative to control, S. aureus ATCC 12600 [7] | cell density relative to control, V. owensii ems001 (Vibrio owensii ems001) | Hemolysis ratio (%) at 8μg/mL (sheep red blood cells) [%] | Hemolysis ratio (%) at 16μg/mL (sheep red blood cells) [%] | Hemolysis ratio (%) at 32μg/mL (sheep red blood cells) [%] | Hemolysis ratio (%) at 64μg/mL (sheep red blood cells) [%] | Hemolysis ratio (%) at 128μg/mL (sheep red blood cells) [%] |
| --- | --- | --- | --- | --- | --- | --- | --- | --- | --- | --- | --- | --- | --- |
| MKALRRFLSCKVCSHALN [Cand-160, chemically synthesized candidate AMP predicted from marine biofilm bacteria] | 0.001 | 0.001 | 0.638 | 0 | 0.406 | 0.072 | 0 | 0.442 | – | – | – | – | – |
| MPASRRCRPCCRLSGC [Cand-7, chemically synthesized candidate AMP predicted from marine biofilm bacteria] | 0.016 | 1 | 1 | 0.065 | 0.989 | 1 | 0.01 | 0.114 | – | – | – | – | – |
| MRQGMCRIGGRL [Cand-55, chemically synthesized candidate AMP predicted from marine biofilm bacteria] | 0 | 0.845 | 1 | 0.908 | 0.915 | 1 | 0.793 | 1 | – | – | – | – | – |
| MWKLPKWRNGRRRGFKIPRW [Cand-109, chemically synthesized candidate AMP predicted from marine biofilm bacteria] | 0.019 | 0.01 | 0.02 | 0.012 | 0.002 | 0.019 | 0 | 0.039 | – | – | – | – | – |
| MWWSKSIHQASFTRYRSYCRGCCTFSIRSCRYKRRII [Cand-180, chemically synthesized candidate AMP predicted from marine biofilm bacteria] | 0 | 0 | 0 | 0 | 0 | 0.025 | 0.107 | 0 | – | – | – | – | – |
| MLTWLKKLQPYLISMMR [Cand-44] | – | – | – | – | – | – | – | – | 3.540 | 1.775 | 3.660 | 5.713 | 19.067 |
| MSCDLQKVRGCLPRLIVHK [Cand-142, chemically synthesized candidate AMP predicted from marine biofilm bacteria] | 1 | 1 | 1 | 1 | 1 | 0.989 | 0.941 | 1 | – | – | – | – | – |
| MRPKKWLKKPKPRPKKWPTK [Cand-210] | – | – | – | – | – | – | – | – | 0.520 | 0.079 | 0.689 | 1.792 | – |
| MRPRLRKRLLR [Cand-187, chemically synthesized candidate AMP predicted from marine biofilm bacteria] | 0.84 | 0.766 | 0.703 | 0.002 | 0.674 | 0.256 | 0.68 | 1 | – | – | – | – | – |
| MSKIKAKIGHLR [Cand-98, chemically synthesized candidate AMP predicted from marine biofilm bacteria] | 1 | 0.74 | 1 | 1 | 0.765 | 1 | 0.721 | 1 | – | – | – | – | – |
| MWTIYSGIKRSLHYCRRRGYYCSRYGYYS [Cand-43, chemically synthesized candidate AMP predicted from marine biofilm bacteria] | 0.124 | 0.385 | 0.297 | 0.67 | 0 | 0 | 0.031 | 0.215 | – | – | – | – | – |
| MWAVARGRR [Cand-195, chemically synthesized candidate AMP predicted from marine biofilm bacteria] | 1 | 1 | 0.987 | 0.676 | 1 | 1 | 0.945 | 0.958 | – | – | – | – | – |
| MSPIRAWRRLRSC [Cand-144] | – | – | – | – | – | – | – | – | 1.328 | 1.615 | 1.536 | 3.230 | 10.013 |
| MRHNMCRIGGRL [Cand-203, chemically synthesized candidate AMP predicted from marine biofilm bacteria] | 0.004 | 1 | 0.966 | 1 | 1 | 0.825 | 1 | 1 | – | – | – | – | – |
| MSPCLKGVIRSAVKSLHR [Cand-53] | – | – | – | – | – | – | – | – | 2.990 | 2.497 | 3.703 | 3.585 | – |
| MWIRLTKRLRKSRSNR [Cand-214] | – | – | – | – | – | – | – | – | 1.812 | 2.604 | 3.258 | 3.738 | – |
| MWPLSKLWPSCFRKTT [Cand-5] | – | – | – | – | – | – | – | – | 2.350 | 1.575 | 0.874 | 7.118 | – |

From PMC11683478, “Bioprospecting of culturable marine biofilm bacteria for novel antimicrobial peptides” (iMeta, 2024)
